In the assay the test system is L1210 leukemia ip in BDF1 mice, survival T/C. The experiment in a line: NCI In Vivo Anticancer Drug Screen. Data for tumor model L1210 Leukemia (intraperitoneal) in B6D2F1 (BDF1) mice. The note with it: endpoint: mean survival time, higher = longer survival. Summed up:
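Transplantable tumor model; survival measured in treated vs vehicle control mice. Value = treated/control.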

Setting [1] is: dose: 100.0 mg/kg/injection, schedule: Q01DX009 (ip), vehicle: saline.
Where [2] appears, read: dose: 100.0 mg/kg/injection, schedule: Q04DX003 (ip), vehicle: saline.
Where [3] appears, read: dose: 200.0 mg/kg/injection, schedule: Q01DX009 (ip), vehicle: saline.
Setting [4] is: dose: 200.0 mg/kg/injection, schedule: Q04DX003 (ip), vehicle: saline.
Where [5] appears, read: dose: 400.0 mg/kg/injection, schedule: Q04DX003 (ip), vehicle: saline.
[6] abbreviates: dose: 100.0 mg/kg/injection, schedule: Q01DX009 (ip), vehicle: Klucel (hydroxypropylcellulose) (HPC).
[7] abbreviates: dose: 100.0 mg/kg/injection, schedule: Q04DX003 (ip), vehicle: Klucel (hydroxypropylcellulose) (HPC).
Where [8] appears, read: dose: 200.0 mg/kg/injection, schedule: Q01DX009 (ip), vehicle: Klucel (hydroxypropylcellulose) (HPC).
Setting [9] is: dose: 200.0 mg/kg/injection, schedule: Q04DX003 (ip), vehicle: Klucel (hydroxypropylcellulose) (HPC).
The mark [10] stands for this setting: dose: 400.0 mg/kg/injection, schedule: Q01DX009 (ip), vehicle: Klucel (hydroxypropylcellulose) (HPC).
[11] abbreviates: dose: 400.0 mg/kg/injection, schedule: Q04DX003 (ip), vehicle: Klucel (hydroxypropylcellulose) (HPC).
The mark [12] stands for this setting: dose: 100.0 mg/kg/injection, schedule: Q01DX001 (ip), vehicle: saline.
Where [13] appears, read: dose: 200.0 mg/kg/injection, schedule: Q01DX001 (ip), vehicle: saline.
The mark [14] stands for this setting: dose: 400.0 mg/kg/injection, schedule: Q01DX001 (ip), vehicle: saline.
Setting [15] is: dose: 100.0 mg/kg/injection, schedule: Q04DX003 (ip), vehicle: saline with Tween-80.
Setting [16] is: dose: 200.0 mg/kg/injection, schedule: Q04DX003 (ip), vehicle: saline with Tween-80.
[17] abbreviates: dose: 50.0 mg/kg/injection, schedule: Q01DX001 (ip), vehicle: saline.
The mark [18] stands for this setting: dose: 50.0 mg/kg/injection, schedule: Q01DX009 (ip), vehicle: saline.

Each structure is given as a SMILES string. Where “and” joins values, the source holds several entries; their conditions need not be identical. Equal entries are not always repeated. Toxic doses and inconclusive results are not listed.

For the compound `CC(C)Oc1ccc(CC(N)C(=O)O)cc1N(CCCl)CCCl` (centres undefined), the T/C (dose: 0.44 mg/kg/injection, schedule: Q01DX009 (ip), vehicle: carboxymethylcellulose (CMC)) is 108 % of control; the T/C (dose: 0.5 mg/kg/injection, schedule: Q01DX009 (ip), vehicle: saline) is 120 % of control; the T/C (dose: 0.6 mg/kg/injection, schedule: Q01DX009 (ip), vehicle: carboxymethylcellulose (CMC)) was 121 % of control; the T/C (dose: 0.66 mg/kg/injection, schedule: Q01DX009 (ip), vehicle: carboxymethylcellulose (CMC)) is 111 % of control; the T/C (dose: 1.0 mg/kg/injection, schedule: Q01DX009 (ip), vehicle: carboxymethylcellulose (CMC)) is 124 % of control; the T/C (dose: 1.0 mg/kg/injection, schedule: Q01DX009 (ip), vehicle: saline) was 114 % of control. The T/C was 108 % of control (dose: 1.5 mg/kg/injection, schedule: Q01DX001 (ip), vehicle: carboxymethylcellulose (CMC)); 117 % of control (dose: 2.0 mg/kg/injection, schedule: Q01DX009 (ip), vehicle: saline); 114 % of control (dose: 2.2 mg/kg/injection, schedule: Q01DX001 (ip), vehicle: carboxymethylcellulose (CMC)); 119 % of control (dose: 3.3 mg/kg/injection, schedule: Q01DX001 (ip), vehicle: carboxymethylcellulose (CMC)); 158 % of control (dose: 3.3 mg/kg/injection, schedule: Q01DX009 (ip), vehicle: carboxymethylcellulose (CMC)); 114 % of control (dose: 5.0 mg/kg/injection, schedule: Q01DX001 (ip), vehicle: carboxymethylcellulose (CMC)). Besides, the T/C (dose: 5.0 mg/kg/injection, schedule: Q01DX001 (ip), vehicle: saline with Tween-80) was 116 % of control; the T/C (dose: 5.0 mg/kg/injection, schedule: Q01DX009 (ip), vehicle: carboxymethylcellulose (CMC)) was 164 % of control and 166 % of control; the T/C (dose: 7.5 mg/kg/injection, schedule: Q01DX001 (ip), vehicle: saline with Tween-80) was 116 % of control; the T/C (dose: 7.5 mg/kg/injection, schedule: Q01DX009 (ip), vehicle: carboxymethylcellulose (CMC)) was 205 % of control; the T/C (dose: 10.0 mg/kg/injection, schedule: Q01DX001 (ip), vehicle: saline with Tween-80) is 116 % of control; the T/C (dose: 10.0 mg/kg/injection, schedule: Q01DX009 (ip), vehicle: carboxymethylcellulose (CMC)) was 213 % of control. Also, the T/C runs as follows: (dose: 15.0 mg/kg/injection, schedule: Q01DX001 (ip), vehicle: carboxymethylcellulose (CMC)) 124 % of control; (dose: 15.0 mg/kg/injection, schedule: Q01DX009 (ip), vehicle: carboxymethylcellulose (CMC)) 123 % of control; (dose: 25.0 mg/kg/injection, schedule: Q01DX001 (ip), vehicle: Klucel (hydroxypropylcellulose) (HPC)) 177 % of control; (dose: 30.0 mg/kg/injection, schedule: Q01DX009 (ip), vehicle: saline) 90 % of control.
For the compound `CCN(CC)C(C)C(=O)c1ccc2cc(Br)c3ccccc3c2c1` (centres undefined), the T/C was 97 % of control (dose: 222.0 mg/kg/injection, schedule: Q01DX Z (ip), vehicle: methylcellulose (MC)); 104 % of control (dose: 333.0 mg/kg/injection, schedule: Q01DX Z (ip), vehicle: methylcellulose (MC)); 87 % of control (dose: 500.0 mg/kg/injection, schedule: Q01DX Z (ip), vehicle: methylcellulose (MC)).
For `CCC(=O)c1ccccc1NC(C)=O`, the T/C runs as follows: (dose: 100.0 mg/kg/injection, schedule: Q01DX009 (ip), vehicle: saline with Tween-80) 97 % of control; (dose: 200.0 mg/kg/injection, schedule: Q01DX009 (ip), vehicle: saline with Tween-80) 96 % of control; (dose: 400.0 mg/kg/injection, schedule: Q01DX009 (ip), vehicle: saline with Tween-80) 101 % of control.
On to `CCOC(=O)c1ccc(NC(=O)Nc2cc(Cl)ccc2OC)cc1`, for which the T/C reads like this: under setting [1], 106 % of control; under setting [2], 109 % of control; under setting [3], 92 % of control; under setting [4], 97 % of control; (dose: 400.0 mg/kg/injection, schedule: Q01DX009 (ip), vehicle: saline) 92 % of control; under setting [5], 92 % of control.
For `CC1CCCCN1Cc1ccccc1COC(=O)c1ccc(Cl)cc1` (centres undefined), the T/C was 98 % of control (dose: 100.0 mg/kg/injection, schedule: Q01DX001 (ip), vehicle: Klucel (hydroxypropylcellulose) (HPC)) and 107 % of control (dose: 200.0 mg/kg/injection, schedule: Q01DX001 (ip), vehicle: Klucel (hydroxypropylcellulose) (HPC)).
With `Cc1ccc(-c2nc3ncnc(N)c3[nH]2)cc1N`, the T/C is, setting by setting: under setting [2], 89 % of control; under setting [4], 94 % of control; under setting [5], 94 % of control.
Regarding `CC(NC(=O)OCc1ccccc1)C(=O)O` (centres undefined), the T/C runs as follows: under setting [6], 97 % of control; (dose: 100.0 mg/kg/injection, schedule: Q04DX002 (ip), vehicle: Klucel (hydroxypropylcellulose) (HPC)) 95 % of control; under setting [7], 100 % of control; under setting [8], 90 % of control; (dose: 200.0 mg/kg/injection, schedule: Q04DX002 (ip), vehicle: Klucel (hydroxypropylcellulose) (HPC)) 94 % of control; under setting [9], 100 % of control. For the same compound, the T/C is 97 % of control under setting [10]; 97 % of control (dose: 400.0 mg/kg/injection, schedule: Q04DX002 (ip), vehicle: Klucel (hydroxypropylcellulose) (HPC)); 95 % of control under setting [11].
With `CNc1ncnc2c1c(Br)cn2C1OC(CO)C(O)C1O` (centres undefined), the T/C is, setting by setting: (dose: 5.0 mg/kg/injection, schedule: Q01DX001 (ip), vehicle: saline) 104 % of control; (dose: 10.0 mg/kg/injection, schedule: Q01DX001 (ip), vehicle: saline) 104 % of control; (dose: 20.0 mg/kg/injection, schedule: Q01DX001 (ip), vehicle: saline) 104 % of control.
Turning to `CCOc1ccccc1/C=N/N1CCN(/N=C/c2ccccc2OCC)CC1`, the T/C reads like this: under setting [12], 100 % of control; under setting [13], 90 % of control; under setting [14], 90 % of control.
With `O=C1c2ccccc2-c2c(N=Cc3ccc([N+](=O)[O-])cc3)cccc21`, the T/C by setting is: under setting [7], 102 % of control; under setting [9], 89 % of control; under setting [11], 96 % of control.
Consider `NS(=O)(=O)c1ccc(NC(=O)Nc2ccccc2C(F)(F)F)cc1`, for which the T/C is 100 % of control under setting [6], 89 % of control under setting [8] and 93 % of control under setting [10].
On to `CCCCCCCCP(=O)(CCCC)CCCC`, for which the T/C under setting [15] was 96 % of control and the T/C under setting [16] was 107 % of control.
In the case of `CN(N)/C(N)=N/N`, the T/C was 97 % of control under setting [2], 102 % of control under setting [4] and 97 % of control under setting [5].
Regarding `CCCC(C)C(=O)Nc1cccc(OC(=O)N(C)C)c1` (centres undefined), the T/C under setting [15] is 95 % of control; the T/C under setting [16] was 96 % of control; the T/C (dose: 400.0 mg/kg/injection, schedule: Q04DX003 (ip), vehicle: saline with Tween-80) is 93 % of control.
Take `CC(=O)OCC1OC(COC(C)=O)(c2ccc(C)cc2)C(OC(C)=O)C1OC(C)=O` (centres undefined): the T/C runs as follows: under setting [17], 97 % of control; under setting [12], 103 % of control; under setting [13], 94 % of control; under setting [14], 100 % of control.
On to `C[N+](C)(C)CCCC[N+](C)(C)C`, for which the T/C by setting is: under setting [18], 110 % of control; under setting [1], 100 % of control and 106 % of control; under setting [2], 102 % of control; under setting [3], 98 % of control and 111 % of control; under setting [4], 100 % of control.
As to `CS(=O)(=O)NN`, the T/C runs as follows: (dose: 25.0 mg/kg/injection, schedule: Q01DX009 (ip), vehicle: saline) 89 % of control; under setting [17], 100 % of control; under setting [18], 94 % of control; under setting [12], 102 % of control and 103 % of control.
Turning to `Nc1ncnc2nn(C3OC(CO)C(O)C3O)nc12` (centres undefined), the T/C (dose: 75.0 mg/kg/injection, schedule: Q01DX001 (ip), vehicle: saline) was 105 % of control; the T/C (dose: 150.0 mg/kg/injection, schedule: Q01DX001 (ip), vehicle: saline) is 105 % of control; the T/C (dose: 300.0 mg/kg/injection, schedule: Q01DX001 (ip), vehicle: saline) is 108 % of control.

The values above are taken from PubChem BioAssay AID248 (DTP/NCI, 2004).
